Laboratory results from patent US6605595B1, “Avermectin derivatives” (The Kitasato Institute, priority 1999, dated 2003).

Columns and labels:
Caenorhabditis elegans = test: Antiparasitic activity against Caenorhabditis elegans, 96 well microplate (MIC); format: in vivo; conditions: 20° C., observed after 24 and 48 hours
Source text: (§1) As model insects for simple determination of antiparasitic and insecticidal activities, those insects are desired which can be easily obtained and bred in laboratories, and have no pathogenicity to a human. Caenorhabditis elegans, an unparasitic eelworm widely used in experiments of genetics, was used as a typical steam worm, and Artemia salina used as feed for tropical fish and named Brine shrimp, was used instead of insects.
Escherichia. coli for the feed of Caenorhabditis elegans (mutant having uracil requirement) was inoculated in a seed medium for E. coli to which a small amount of uracil was added, and cultured with shaking at 27° C. for 1 day. A petri dish of 6 cm diameter was filled with 10 ml of an agar medium for eelworm proliferation, and the medium was solidified. Then 0.5 ml of the culture of E. coli was spread over the medium in the dish, and the dish was incubated at 37° C. to proliferate E. coli. A piece of the agar was collected with a platinum loop from a petri dish in which Caenorhabditis elegans successfully proliferated, and inoculated in petri dishes in which E. coli was proliferated. The petri dishes were incubated at 20° C. to proliferate Caenorhabditis elegans. Since the life of eelworm is about 2 weeks, subculture was carried out every once a week. The eelworms grown with spread on the surface of the petri dish after 3 to 5 days from subculture were used for the experiments.
The agar medium for eelworm proliferation was prepared by mixing the solutions in the following proportion: Solution A: 100 ml, Solution B: 0.1 ml, Solution C: 0.05 ml, Solution D: 0.1 ml and Solution E: 2.5 ml (without pH adjustment), and dispensing each 10 ml portion into petri dishes of 60×15 mm.
In distilled water, 2.0% of bact-trypton (DIFCO Co.), 0.55% of sodium chloride and 0.001% of uracil (SIGMA Co., pH 7.4) were dissolved, and the solution was sterilized in an autoclave at 121° C. for 20 minutes.
(§2) Each well of a 96 well microplate was filled with the solution of the test compound (methanol as a solvent), and the solvent was removed using a vacuum pump, then 250 μl of the assay medium was added to each wells (the assay medium was prepared by dissolving 7.5 mM sodium hydrogencarbonate, 7.5 mM potassium chloride, 7.5 mM calcium chloride dihydrate and 7.5 mM magnesium sulfate heptahydrate in distilled water and adding 0.01% of lecithin thereto), and then the microplate was shaken using a microplate mixer for 15 minutes. To each well, a few individuals of Caenorhabditis elegans were added by softly rubbing the surface of the agar using a toothpick, or a few individuals of Artemia salina were added together with 50 μl of the buffer. The microplate was incubated at 20° C., and then the insects were observed after 24 and 48 hours under a microscope (magnification of 40×). The results were compared to those obtained without addition of the test compound, and evaluated by 4 grades.
(§3) The evaluation results were shown by indications of 4 grades from 0 to 3.
(§4) 1: A little week movements
(§5) Of the 4 grades, Indications 3 and 2 were judged as effective, and Indications 1 and 0 as ineffective. In Table 9, the values for each compound are minimum inhibitory concentrations (MIC) which were required to give Indication 2 (or 3) for Caenorhabditis elegans or Artemia salina. In Table 9, Caenorhabditis elegans and Artemia salina are abbreviated as C.E. and A.S., respectively.

Artemia salina = test: Insecticidal model activity against Artemia salina (brine shrimp), 96 well microplate (MIC); format: in vivo; conditions: 20° C., observed after 24 and 48 hours
Source text: as §1
To a buffer for Artemia salina (obtained by dissolving 0.24% of Tris, 2.57% of sodium chloride, 0.47% of magnesium chloride, 0.07% of potassium chloride, 0.02% of sodium carbonate, 0.64% of magnesium sulfate and 0.11% of calcium chloride in distilled water and adjusting the pH to 7.1 with hydrochloric acid), dried eggs of Artemia salina [Tetra Brine Shrimp Eggs, Warner Lambert Co.] were added. The noprius larvae 1 or 2 days after hatching were used for the experiments.
as §2, §3, §4, §5

Heterakis spumosa = test: In vivo experiments with Heterakis spumosa in mice; set-up: key: 3 represents cure (no parasites detectable); 2 effective (<20% of parasites remaining); 1 trace effect (< of parasites remaining); 0 ineffective (>50% of parasites remaining); conditions: orally 4 times, mice infected with H. spumosa
Method: In vivo experiments with Heterakis spumosa
For the experiments male mice (strain Bor CFW, 25-30 g of body weight on receipt) were housed in Macrolon cages (3 mice per cage) and provided with water and SNIFF rat feed (10-mm pellets) ad libitum. Mice were infected with H. spumosa by oral application of 90 embryonated eggs. The eggs were obtained from female Heterakis. isolated from mouse colon 40 days after infection followed by additional three weeks incubation at 37° C. The mice were treated orally 4 times with the compounds at the dosages of 1, 0.5, 0.25, 0.1, 0.05 and 0.025 mg/kg between days 46 and 49 after infection. Compounds were suspended in Cremophor EL. Infected control mice served as untreated controls which only received Cremophor EL. Mice were killed eight days after treatment (i.e. on day 57 after infection) with carbon dioxide and cecum and colon were dissected. The number of worms which have resided in the cecum and colon were counted macroscopically. The ratios of the number of expelled worms in percent of the total number of worms was defined as level of the anthelmintic activity. Activity was evaluated on a scale 0-3 where 3 represents cure (no parasites detectable), 2 effective (<20% of parasites remaining), 1 trace effect (< of parasites remaining) and 0 ineffective (>50% of parasites remaining).

[1] = test system: Adult Ctenocephalides felis; test: Test on cat fleas / oral absorption; format: in vivo; conditions: after 24 hours
Method: Test on cat fleas/oral absorption
Test animals: Adult Ctenocephalides felis
Solvent: Dimethylsulfoxide (DMSO)
20 μl of this formulation are added to 4 ml of citrated cow's blood and stirred.
20 starved adult fleas (of “Georgi” species of Ctenocephalides felis) are introduced into a chamber (of a diameter of 5 cm) which is sealed with gauze at the top and bottom. A metal cylinder, whose base is sealed with parafilm, is placed on the chamber. […] Whereas the blood is heated to 37° C. a temperature of 25° C. is adjusted in the region of the flea chambers. Controls are mixed with the same volume of DMSO without the addition of any of the compounds. The test are repeated three times.
After 24 hours the mortality is determined in %.

[2] = test system: Third larval stages of Periplaneta americana; test: Test on cockroaches, immersion process; format: in vivo; conditions: immersion 60 seconds, time of reading not stated (2 and 24 hours, 7 days)
Method: Test on cockroached—Immersion process
Test animals: Third larval stages of Periplaneta americana
(§6) Solvent: Dimethylsulfoxide
20 mg of active compound are dissolved in one ml of dimethylsulfoxide. In order to prepare a suitable formulation the solution of active compound is diluted with water to the concentration required in each case.
20 ml of this preparation of active compound are pipetted into tubes (of a diameter of 1.5 cm and a height of 10 cm). 4 cockroach larvae are intoxicated with CO2 and transferred to a tube (of a diameter of 1.2 cm and a height of 9 cm) containing 3 holes (in the base and 5 cm below the upper rim). The tube is sealed with a stopper and kept at room temperature for 30 minutes until all of the cockroach larvae again display normal activity. The tube is immersed in the active compound formulation for 60 seconds, during which period all of the cockroach larvae are completely coverd. After the liquid has drained off the cockroach larvae are transferred to filter discs in cans made of PP (of a diameter of 9.7 cm and a height of 8 cm height).
After 2 and 24 hours and after 7 days the activity of the active compound formulation is determined. 100% means that all of the cockroach larvae have been destroyed; 0% means that none of the cockroach larvae have been destroyed.

Nematospiroides dubius = test: In vivo experiments with Nematospiroides dubius in mice; set-up: key: 3 represents cure (no parasites detectable); 2 effective (<20% of parasites remaining); 1 trace effect (< of parasites remaining); 0 ineffective (>50% of parasites remaining); conditions: orally 4 times, mice infected with N. dubius larvae
Lucilia cuprina larvae = test: Blowfly larvae test / development-inhibiting activity; format: in vivo
Method: Blowfly larvae test/Development-inhibiting activity
Test animals: Lucilia cuprina larvae
as §6
20 mg of active compound are dissolved in one ml of dimethylsulfoxide. In order to prepare a suitable formulation the active compound solution is diluted with water to the concentration required in each case.
Approx. 20 Lucilia cuprina larvae are introduced into a test tube containing approx. 1 cm^3 of horse-meat and 0.5 ml of the active compound preparation to be tested. After 48 hours the activity of the active compound preparation is determined. The test tubes are transferred to beakers with a sand-covered base. After a further 2 days the test tubes are removed and the pupae counted.
The activity of the active compound preparation is assessed according to the number of flies which have hatched after 1.5 times the development period of an untreated control. 100% means that no flies have hatched: 0% means that all of the flies have hatched normally.

[3] = 100 ppm in citrated cow's blood

CCOC(=O)C=C1C(C)OC(OC2C(C)OC(OC3C(C)=CCC4CC(CC5(C=CC(C)C(C(C)CC)O5)O4)OC(=O)C4C=C(C)C(O)C5OCC(=CC=CC3C)C45O)CC2OC)CC1OC (stereo not shown) [Compound 2]
C.E. minimum inhibitory concentration (MIC) required to give Indication 2 (or 3) (Caenorhabditis elegans): 0.01 µg/mL | A.S. minimum inhibitory concentration (MIC) required to give Indication 2 (or 3) (Artemia salina): 0.01 µg/mL | anthelmintic activity score (scale 0-3) (Heterakis spumosa; 0.05 mg/kg): 2 (2 effective (<20% of parasites remaining)) | anthelmintic activity score (scale 0-3) (Heterakis spumosa; 0.1 mg/kg): 3 | anthelmintic activity score (scale 0-3) (Heterakis spumosa; 0.25 mg/kg): 3 | anthelmintic activity score (scale 0-3) (Heterakis spumosa; 0.5 mg/kg): 3 | anthelmintic activity score (scale 0-3) (Heterakis spumosa; 1 mg/kg): 3 | mortality of fleas ([1]; 10 ppm in citrated cow's blood): 50% | mortality of fleas [1, 3]: 100%

CCC(C)C1OC2(CC3CC(CC=C(C)C(OC4CC(OC)C(OC5CC(OC)C(=CC(=O)OC)C(C)O5)C(C)O4)C(C)C=CC=C4COC5C(O)C(C)=CC(C(=O)O3)C45O)O2)CC(O)C1C (stereo not shown) [Compound 78]
activity (100% = all of the cockroach larvae destroyed) ([2]; 1 ppm): 50% | activity (100% = all of the cockroach larvae destroyed) ([2]; 10 ppm): 50% | activity (100% = all of the cockroach larvae destroyed) ([2]; 100 ppm): 100%

CCC(C)C1OC2(C=CC1C)CC1CC(CC=C(C)C(OC3CC(OC)C(OC4CC(OC)C(=CC(=O)O)C(C)O4)C(C)O3)C(C)C=CC=C3COC4C(=NO)C(C)=CC(C(=O)O1)C34O)O2 (stereo not shown) [Compound 58]
anthelmintic activity score (scale 0-3) (Nematospiroides dubius; 0.5 mg/kg): 3 | anthelmintic activity score (scale 0-3) (Nematospiroides dubius; 1 mg/kg): 3 | mortality of fleas ([1]; 10 ppm in citrated cow's blood): 73% | mortality of fleas [1, 3]: 100%

CCC(C)C1OC2(C=CC1C)CC1CC(CC=C(C)C(OC3CC(OC)C(OC4CC(OC)C(=CC(=O)OC)C(C)O4)C(C)O3)C(C)C=CC=C3COC4C(O)C(C)=CC(C(=O)O1)C34O)O2 (stereo not shown) [Compound 7]
C.E. minimum inhibitory concentration (MIC) required to give Indication 2 (or 3) (Caenorhabditis elegans): 0.01 µg/mL | A.S. minimum inhibitory concentration (MIC) required to give Indication 2 (or 3) (Artemia salina): 0.002 µg/mL | development-inhibiting activity (100% = no flies have hatched) (Lucilia cuprina larvae; 1 ppm): 100% | development-inhibiting activity (100% = no flies have hatched) (Lucilia cuprina larvae; 10 ppm): 100% | development-inhibiting activity (100% = no flies have hatched) (Lucilia cuprina larvae; 100 ppm): 100% | mortality of fleas ([1]; 10 ppm in citrated cow's blood): 61% | mortality of fleas [1, 3]: 99%

CCC(C)C1OC2(C=CC1C)CC1CC(CC=C(C)C(OC3CC(OC)C(OC4CC(OC)C(=CCOC5CCCCO5)C(C)O4)C(C)O3)C(C)C=CC=C3COC4C(O)C(C)=CC(C(=O)O1)C34O)O2 (stereo not shown) [Compound 31]
C.E. minimum inhibitory concentration (MIC) required to give Indication 2 (or 3) (Caenorhabditis elegans): 0.05 µg/mL | A.S. minimum inhibitory concentration (MIC) required to give Indication 2 (or 3) (Artemia salina): 0.01 µg/mL | anthelmintic activity score (scale 0-3) (Heterakis spumosa; 0.1 mg/kg): 2 (2 effective (<20% of parasites remaining)) | anthelmintic activity score (scale 0-3) (Heterakis spumosa; 0.25 mg/kg): 2 (2 effective (<20% of parasites remaining)) | anthelmintic activity score (scale 0-3) (Heterakis spumosa; 0.5 mg/kg): 3 | anthelmintic activity score (scale 0-3) (Heterakis spumosa; 1 mg/kg): 3

CCC(C)C1OC2(C=CC1C)CC1CC(CC=C(C)C(OC3CC(OC)C(OC4CC(OC)C(=CC=CC(=O)O)C(C)O4)C(C)O3)C(C)C=CC=C3COC4C(O)C(C)=CC(C(=O)O1)C34O)O2 (stereo not shown) [Compound 66]
activity (100% = all of the cockroach larvae destroyed) ([2]; 1 ppm): 75% | activity (100% = all of the cockroach larvae destroyed) ([2]; 10 ppm): 100% | activity (100% = all of the cockroach larvae destroyed) ([2]; 100 ppm): 100%

CCC(C)C1OC2(C=CC1C)CC1CC(CC=C(C)C(OC3CC(OC)C(OC4CC(OC)C(=CCOC(=O)c5cccnc5)C(C)O4)C(C)O3)C(C)C=CC=C3COC4C(O)C(C)=CC(C(=O)O1)C34O)O2 (stereo not shown) [Compound 21]
C.E. minimum inhibitory concentration (MIC) required to give Indication 2 (or 3) (Caenorhabditis elegans): 0.01 µg/mL | A.S. minimum inhibitory concentration (MIC) required to give Indication 2 (or 3) (Artemia salina): 0.002 µg/mL | development-inhibiting activity (100% = no flies have hatched) (Lucilia cuprina larvae; 1 ppm): 100% | development-inhibiting activity (100% = no flies have hatched) (Lucilia cuprina larvae; 10 ppm): 100% | development-inhibiting activity (100% = no flies have hatched) (Lucilia cuprina larvae; 100 ppm): 100%
